In brackets after ≈: the same amount, converted by molar mass.

These results are taken from patent US6111067A, “A-82846-type glycopeptide antibiotics” (Eli Lilly and Company, priority 1993, dated 2000).

The subject of experiment [1] is Staphylococcus aureus S13E. The experiment is classed as cell-based. As to conditions: agar dilution. On the procedure:
(§1) The formula 1 compounds have in vitro and in vivo activity against Gram-positive pathogenic bacteria. The MIC's were determined by standard agar-dilution assays.
(In general: In agar dilution the substance is mixed into plates at graded concentrations.)

Experiment [2] relates to Streptococcus pneumoniae Park I. The experiment is classed as cell-based. Conditions: agar dilution. On the procedure: as §1
The subject of another experiment is Streptococcus pyogenes. The experiment can be described thus: In vivo activity against experimentally-induced infection in mice (ED50). Conditions: mice infected with Streptococcus pyogenes; subcutaneous doses 1 and 4 hours postinfection. The protocol: (§2) The formula 1 compounds have also shown in vivo antimicrobial activity against experimentally-induced infections in laboratory animals. When two doses of test compound were administered to mice experimentally infected with the test organism, the activity observed was measured as an ED50 value [effective dose in mg/kg to protect 50% of the test animals: see Warren Wick, et al., J. Bacteriol. 81, 233-235 (1961)]. ED50 values observed for illustrative compounds are given in Table III. | ^a mg/kg × 2; doses administered subcutaneously to mice 1 and 4 | hours postinfection

A further experiment concerns Staphylococcus aureus. The description is as above. Conditions: mice infected with Staphylococcus aureus; subcutaneous doses 1 and 4 hours postinfection. On the procedure: as §2
The next experiment concerns Streptococcus pneumoniae. The experiment is described as above. Conditions: mice infected with Streptococcus pneumoniae; subcutaneous doses 1 and 4 hours postinfection. The protocol: as §2
The test system of experiment [3] is Streptococcus pyogenes C203. The experiment can be described thus: In vitro antibacterial activity, agar-dilution MIC. The experiment is classed as cell-based. On the procedure:
as §1

In experiment [4] the test system is Staphylococcus aureus X1.1. The experiment can be described thus: In vitro antibacterial activity, agar-dilution MIC. Type of experiment: cell-based. The protocol: as §1
In experiment [5] the test system is Haemophilus influenzae C.L. The experiment can be described thus: In vitro antibacterial activity, agar-dilution MIC. Type of experiment: cell-based. As to conditions: ampicillin-sensitive strain, highest level tested 128 mcg/mL. The protocol: as §1
The test system of experiment [6] is Klebsiella pneumoniae X26. The experiment can be described thus: In vitro antibacterial activity, agar-dilution MIC. Type of experiment: cell-based. Conditions: highest level tested 128 mcg/mL. The protocol: as §1
Experiment [7] relates to Haemophilus influenzae 76. The experiment can be described thus: In vitro antibacterial activity, agar-dilution MIC. Type of experiment: cell-based. As to conditions: Haemophilus influenzae 76, ampicillin-resistant strain, highest level tested 128 mcg/mL. On the procedure: as §1
Experiment [8] concerns Staphylococcus aureus X400. As to the kind of experiment: In vitro antibacterial activity, agar-dilution MIC. Conditions: Staphylococcus aureus X400, methicillin-resistant strain. Type of experiment: cell-based. The protocol:
as §1

The subject of experiment [9] is Staphylococcus epidermidis 222. The experiment can be described thus: In vitro antibacterial activity, agar-dilution MIC. The experiment is classed as cell-based. The protocol: as §1
The test system of another experiment is Escherichia coli EC14. The experiment can be described thus: In vitro antibacterial activity, agar-dilution MIC. Type of experiment: cell-based. Conditions: highest level tested 128 mcg/mL. On the procedure: as §1
In experiment [10] the test system is Staphylococcus aureus V41. As to the kind of experiment: In vitro antibacterial activity, agar-dilution MIC. The experiment is classed as cell-based. As to conditions: Staphylococcus aureus V41, penicillin-resistant strain. On the procedure:
as §1

Experiment [11] concerns Streptococcus Group D X66. As to the kind of experiment: In vitro antibacterial activity, agar-dilution MIC. The experiment is classed as cell-based. On the procedure: as §1
For experiment [12], the system named is Streptococcus Group D 2041. The experiment can be described thus: In vitro antibacterial activity, agar-dilution MIC. The experiment is classed as cell-based. The protocol:
as §1

Experiment [13] concerns Staphylococcus epidermidis 270. The experiment can be described thus: In vitro antibacterial activity, agar-dilution MIC. Type of experiment: cell-based.

`CNC(CC(C)C)C(=O)NC1C(=O)NC(CC(N)=O)C(=O)NC2C(=O)NC3C(=O)NC(C(=O)NC(C(=O)O)c4cc(O)cc(O)c4-c4cc3ccc4O)C(OC3CC(C)(N)C(O)C(C)O3)c3ccc(cc3)Oc3cc2cc(c3OC2OC(CO)C(O)C(O)C2O)Oc2ccc(cc2Cl)C1O` (stereo not shown) [Compound 2a]: the MIC in experiment [1] was 0.5 µg/mL (≈ 0.353 µM); in experiment [2], 1 µg/mL (≈ 0.707 µM); in experiment [3], 0.5 µg/mL (≈ 0.353 µM); in [4], 0.5 µg/mL (≈ 0.353 µM); in [5] it was “-- (Not active at 128 mcg/mL, the highest level tested)”; in [6], “-- (Not active at 128 mcg/mL, the highest level tested)”. In addition, the MIC entry is “-- (Not active at 128 mcg/mL, the highest level tested)” in experiment [7]; 1 µg/mL (≈ 0.707 µM) in experiment [8]; 1 µg/mL (≈ 0.707 µM) in experiment [9]; “-- (Not active at 128 mcg/mL, the highest level tested)” in the experiment on Escherichia coli EC14; 1 µg/mL (≈ 0.707 µM) in experiment [10]; 1 µg/mL (≈ 0.707 µM) in experiment [11]. Also, the MIC is 4 µg/mL (≈ 2.83 µM) in [12] and 1 µg/mL (≈ 0.707 µM) in experiment [13]. The “ED50 Value” with Streptococcus pyogenes is 3.54 mg/kg × 2; with Staphylococcus aureus it was 2.97 mg/kg × 2; with Streptococcus pneumoniae, 2.04 mg/kg × 2.
With `CN[C@H](CC(C)C)C(=O)N[C@H]1C(=O)N[C@@H](CC(N)=O)C(=O)N[C@H]2C(=O)N[C@H]3C(=O)N[C@H](C(=O)N[C@H](C(=O)O)c4cc(O)cc(O)c4-c4cc3ccc4O)[C@H](O[C@H]3C[C@](C)(N)[C@@H](O)[C@H](C)O3)c3ccc(cc3)Oc3cc2cc(c3O)Oc2ccc(cc2Cl)[C@H]1O` [Compound 2b], the MIC in experiment [1] is 1 µg/mL (≈ 0.798 µM); in experiment [2] it was 1 µg/mL (≈ 0.798 µM); in [3], 1 µg/mL (≈ 0.798 µM); in experiment [4], 1 µg/mL (≈ 0.798 µM); in experiment [5] it was “-- (Not active at 128 mcg/mL, the highest level tested)”; in experiment [6], “-- (Not active at 128 mcg/mL, the highest level tested)”. The MIC result in experiment [7] is “-- (Not active at 128 mcg/mL, the highest level tested)”; in [8], 1 µg/mL (≈ 0.798 µM); in experiment [9] it was 2 µg/mL (≈ 1.6 µM); with Escherichia coli EC14 it was “-- (Not active at 128 mcg/mL, the highest level tested)”; in experiment [10] it was 1 µg/mL (≈ 0.798 µM); in [11] it was 1 µg/mL (≈ 0.798 µM). The MIC came out at 4 µg/mL (≈ 3.19 µM) in experiment [12] and 2 µg/mL (≈ 1.6 µM) in experiment [13]. The “ED50 Value” in the experiment with Streptococcus pyogenes is 3.54 mg/kg × 2; in the experiment with Staphylococcus aureus, 3.06 mg/kg × 2; in the experiment with Streptococcus pneumoniae, 3.74 mg/kg × 2.
With `CN[C@H](CC(C)C)C(=O)N[C@H]1C(=O)N[C@@H](CC(N)=O)C(=O)N[C@H]2C(=O)N[C@H]3C(=O)N[C@H](C(=O)N[C@H](C(=O)O)c4cc(O)cc(O)c4-c4cc3ccc4O)[C@H](O)c3ccc(cc3)Oc3cc2cc(c3O)Oc2ccc(cc2Cl)[C@H]1O` [Compound 2c], the MIC in experiment [1] is 4 µg/mL (≈ 3.61 µM); in experiment [2], 4 µg/mL (≈ 3.61 µM); in experiment [3] it was 4 µg/mL (≈ 3.61 µM); in experiment [4] it was 4 µg/mL (≈ 3.61 µM); in experiment [5], “-- (Not active at 128 mcg/mL, the highest level tested)”; in experiment [6], “-- (Not active at 128 mcg/mL, the highest level tested)”. Further, the MIC entry is “-- (Not active at 128 mcg/mL, the highest level tested)” in experiment [7]; 8 µg/mL (≈ 7.21 µM) in experiment [8]; 8 µg/mL (≈ 7.21 µM) in experiment [9]; “-- (Not active at 128 mcg/mL, the highest level tested)” against Escherichia coli EC14; 4 µg/mL (≈ 3.61 µM) in experiment [10]; 8 µg/mL (≈ 7.21 µM) in experiment [11]. In addition, the MIC was 16 µg/mL (≈ 14.4 µM) in experiment [12] and 4 µg/mL (≈ 3.61 µM) in experiment [13].
Take `CN[C@H](CC(C)C)C(=O)N[C@H]1C(=O)N[C@@H](CC(N)=O)C(=O)N[C@H]2C(=O)N[C@H]3C(=O)N[C@H](C(=O)N[C@H](C(=O)O)c4cc(O)cc(O)c4-c4cc3ccc4O)[C@H](O[C@H]3C[C@](C)(N)[C@@H](O)[C@H](C)O3)c3ccc(c(Cl)c3)Oc3cc2cc(c3O[C@@H]2O[C@H](CO)[C@@H](O)[C@H](O)[C@H]2O)Oc2ccc(cc2Cl)[C@H]1O` [Compound 3a]: the MIC in experiment [1] is 0.25 µg/mL (≈ 0.173 µM); in experiment [2], 0.25 µg/mL (≈ 0.173 µM); in experiment [3], 0.25 µg/mL (≈ 0.173 µM); in experiment [4], 0.25 µg/mL (≈ 0.173 µM); in experiment [5], 64 µg/mL (≈ 44.2 µM); in experiment [6], “-- (Not active at 128 mcg/mL, the highest level tested)”. Also, the MIC entry in experiment [7] is “-- (Not active at 128 mcg/mL, the highest level tested)”; in [8], 0.5 µg/mL (≈ 0.345 µM); in experiment [9] it was 0.5 µg/mL (≈ 0.345 µM); against Escherichia coli EC14, “-- (Not active at 128 mcg/mL, the highest level tested)”; in experiment [10], 0.25 µg/mL (≈ 0.173 µM); in experiment [11] it was 0.5 µg/mL (≈ 0.345 µM). For the same compound, the MIC in experiment [12] and in experiment [13] was 1 µg/mL (≈ 0.69 µM) throughout. Besides, the “ED50 Value” worked out at 0.70 mg/kg × 2 in the experiment on Streptococcus pyogenes, 0.54 mg/kg × 2 in the experiment on Staphylococcus aureus and 0.34 mg/kg × 2 with Streptococcus pneumoniae.
As to `CN[C@H](CC(C)C)C(=O)N[C@H]1C(=O)N[C@@H](CC(N)=O)C(=O)N[C@H]2C(=O)N[C@H]3C(=O)N[C@H](C(=O)N[C@H](C(=O)O)c4cc(O)cc(O)c4-c4cc3ccc4O)[C@H](O[C@H]3C[C@](C)(N)[C@@H](O)[C@H](C)O3)c3ccc(c(Cl)c3)Oc3cc2cc(c3O)Oc2ccc(cc2Cl)[C@H]1O` [Compound 3b], the MIC in experiment [1] was 0.125 µg/mL (≈ 0.0971 µM); in experiment [2], 0.25 µg/mL (≈ 0.194 µM); in experiment [3], 0.25 µg/mL (≈ 0.194 µM); in experiment [4] it was 0.125 µg/mL (≈ 0.0971 µM); in experiment [5], 32 µg/mL (≈ 24.9 µM); in experiment [6] it was “-- (Not active at 128 mcg/mL, the highest level tested)”. The MIC in experiment [7] was 64 µg/mL (≈ 49.7 µM); in experiment [8], 0.5 µg/mL (≈ 0.388 µM); in experiment [9], 0.25 µg/mL (≈ 0.194 µM); against Escherichia coli EC14, “-- (Not active at 128 mcg/mL, the highest level tested)”; in experiment [10] it was 0.25 µg/mL (≈ 0.194 µM); in experiment [11] it was 0.5 µg/mL (≈ 0.388 µM). For the same compound, the MIC in [12] was determined as 1 µg/mL (≈ 0.777 µM); in [13], 0.5 µg/mL (≈ 0.388 µM). Besides, the “ED50 Value” with Streptococcus pyogenes is 0.40 mg/kg × 2; with Staphylococcus aureus it was 0.50 mg/kg × 2; in the experiment on Streptococcus pneumoniae, 0.30 mg/kg × 2.
